Earlier results as cited in patent US20210069213A1, “COMPOSITION AND METHOD OF TREATMENT FOR DRY A.M.D. (AGE RELATED MACULAR DEGENERATION)” (EYE CO PTY LTD, priority 2018, published 2021).

How the values were obtained:
glucocorticoid receptor = target: T1, glucocorticoid receptor (Homo sapiens, UniProt P04150); conditions: cited from earlier work; for GR potency: Table 1, hydrocortisone (cortisol) = 1
T1 sequence (P04150 1-777): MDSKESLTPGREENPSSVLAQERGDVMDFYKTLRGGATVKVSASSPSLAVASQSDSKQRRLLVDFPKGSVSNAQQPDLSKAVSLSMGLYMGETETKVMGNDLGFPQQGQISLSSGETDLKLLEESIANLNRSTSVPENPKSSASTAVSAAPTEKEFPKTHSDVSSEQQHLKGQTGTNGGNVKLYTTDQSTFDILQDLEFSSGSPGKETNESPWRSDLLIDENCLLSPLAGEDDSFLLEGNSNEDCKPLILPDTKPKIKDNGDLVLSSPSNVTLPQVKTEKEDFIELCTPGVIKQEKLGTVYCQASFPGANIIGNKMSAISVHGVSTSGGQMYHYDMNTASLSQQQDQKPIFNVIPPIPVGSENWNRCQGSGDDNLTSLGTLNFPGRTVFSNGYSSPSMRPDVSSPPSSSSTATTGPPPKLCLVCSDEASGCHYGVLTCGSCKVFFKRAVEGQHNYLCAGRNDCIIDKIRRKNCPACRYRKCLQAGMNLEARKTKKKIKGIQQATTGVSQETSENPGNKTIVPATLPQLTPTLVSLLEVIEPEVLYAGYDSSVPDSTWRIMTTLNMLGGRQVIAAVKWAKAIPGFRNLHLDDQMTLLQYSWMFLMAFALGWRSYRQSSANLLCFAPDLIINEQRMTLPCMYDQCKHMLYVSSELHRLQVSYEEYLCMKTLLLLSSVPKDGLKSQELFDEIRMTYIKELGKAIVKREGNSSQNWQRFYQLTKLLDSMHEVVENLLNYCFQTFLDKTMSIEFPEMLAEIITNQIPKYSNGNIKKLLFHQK

[1] = target: T2, mineralocorticoid receptor (Homo sapiens, UniProt P08235); conditions: Table 1; hydrocortisone (cortisol) = 1; cited from earlier work
T2 sequence (P08235 1-984): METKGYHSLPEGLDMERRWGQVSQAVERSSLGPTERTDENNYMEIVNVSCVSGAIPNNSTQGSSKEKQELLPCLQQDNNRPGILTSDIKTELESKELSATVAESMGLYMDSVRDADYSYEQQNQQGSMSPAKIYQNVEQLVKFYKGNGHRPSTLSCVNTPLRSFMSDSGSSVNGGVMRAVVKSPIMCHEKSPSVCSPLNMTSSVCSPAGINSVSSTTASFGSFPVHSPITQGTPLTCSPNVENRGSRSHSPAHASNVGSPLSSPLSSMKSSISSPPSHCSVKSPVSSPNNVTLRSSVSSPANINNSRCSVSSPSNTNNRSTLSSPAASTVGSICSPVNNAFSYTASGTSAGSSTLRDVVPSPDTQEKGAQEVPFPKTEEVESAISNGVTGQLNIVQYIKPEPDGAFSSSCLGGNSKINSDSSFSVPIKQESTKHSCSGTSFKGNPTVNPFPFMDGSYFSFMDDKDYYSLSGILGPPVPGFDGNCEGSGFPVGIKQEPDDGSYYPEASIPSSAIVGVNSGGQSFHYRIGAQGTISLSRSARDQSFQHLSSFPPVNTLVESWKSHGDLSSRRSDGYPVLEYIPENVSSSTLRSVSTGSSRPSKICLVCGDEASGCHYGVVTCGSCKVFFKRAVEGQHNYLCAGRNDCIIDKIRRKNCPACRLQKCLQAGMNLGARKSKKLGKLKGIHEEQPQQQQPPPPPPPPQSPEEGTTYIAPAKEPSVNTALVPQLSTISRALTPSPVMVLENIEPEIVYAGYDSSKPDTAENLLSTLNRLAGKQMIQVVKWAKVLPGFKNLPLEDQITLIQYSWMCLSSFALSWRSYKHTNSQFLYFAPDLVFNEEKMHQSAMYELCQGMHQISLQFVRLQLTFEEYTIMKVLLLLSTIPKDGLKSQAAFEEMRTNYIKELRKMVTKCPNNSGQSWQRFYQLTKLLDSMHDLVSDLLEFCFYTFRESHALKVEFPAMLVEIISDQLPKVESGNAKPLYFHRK

[2] = tested on: New Zealand albino rabbits; conditions: cited from earlier work

Row | SMILES | GR potency (glucocorticoid receptor) | MR potency [1] | also measured
1 | C[C@]12CCC(=O)C=C1CC[C@@H]1[C@@H]2[C@@H](O)C[C@]2(C=O)[C@@H](C(=O)CO)CC[C@@H]12 [Aldosterone] | 0.3 | 200-1000 | –
2 | C[C@H]1C[C@H]2[C@@H]3CCC4=CC(=O)C=C[C@]4(C)[C@@]3(Cl)[C@@H](O)C[C@]2(C)[C@@]1(O)C(=O)CO [Beclometasone] | – | – | GR potency, given as dose equivalence (glucocorticoid receptor; equals 14 mg oral prednisone once/day): 8 puffs 4 times a day;
3 | C[C@]12CCC(=O)C=C1CC[C@@H]1[C@@H]2C(=O)C[C@@]2(C)[C@H]1CC[C@]2(O)C(=O)CO [Cortisone] | 0.8 | 0.8 | –
4 | CC(=O)OCC(=O)[C@H]1CC[C@H]2[C@@H]3CCC4=CC(=O)CC[C@]4(C)[C@H]3CC[C@]12C [Deoxycorticosterone acetate] | 0 | 20 | –
5 | C[C@]12CCC(=O)C=C1CC[C@@H]1[C@@H]2[C@@H](O)C[C@@]2(C)[C@H]1CC[C@]2(O)C(=O)CO [Hydrocortisone] | 1 | 1 | –
6 | C[C@]12C=CC(=O)C=C1CC[C@@H]1[C@@H]2[C@@H](O)C[C@@]2(C)[C@H]1CC[C@]2(O)C(=O)CO [Prednisolone] | 4 | 0.8 | –
7 | C[C@]12C=CC(=O)C=C1CC[C@@H]1[C@@H]2C(=O)C[C@@]2(C)[C@H]1CC[C@]2(O)C(=O)CO [Prednisone] | – | 0.8 | –
8 | C[C@]12C=CC(=O)C=C1CC[C@H]1[C@@H]3C[C@@H](O)[C@](O)(C(=O)CO)[C@@]3(C)C[C@H](O)[C@@]12F [Triamcinolone] | 5 | 0 | –
9 | C[C@]12CCC(=O)C=C1CC[C@H]1[C@@H]3CC[C@](O)(C(=O)CO)[C@@]3(C)C[C@H](O)[C@@]12F [fludrocortisone, 9-alpha fluorohydrocortisone] | – | – | ERG change in the other groups ([2]; intravitreal 2 mg, 1 mg, 400 μg/0.1 ml, two weeks after injection): no significant decrease in ERG; intravitreal (vitreous) haemorrhage ([2]; intravitreal 4 mg/0.1 mL): one eye of this group had a vitreous hemorrhage; ERG change ([2]; intravitreal 4 mg/0.1 ml, two weeks after injection): One eye in the 4 mg/0.1 ml fludrocortisone group exhibited significant decreases in ERG; signs of retinal toxicity on slit-lamp examination, indirect ophthalmoscopy, or light microscopy ([2]; rabbit, in vivo): no signs of retinal toxicity
